Patent US8232253B2, “Treatment of lung cancer” (Ramot at Tel-Aviv University Ltd., priority 2006, dated 2012)

Key:
[1] = tested on: HTB-58 cells; assay: HTB-58-cell-implanted nude mouse model, tumor growth; type: in vivo, nude mice; conditions: 10 mg/kg FTS i.p. daily
Experimental: Nude mice (6 weeks old) were housed in barrier facilities on a 12-h light/dark cycle. Food and water were supplied ad libitum. On day zero, A549 or HTB-58 cells (5×10^6 cells in 0.1 ml PBS) were implanted subcutaneously (s.c.) just above the right femoral joint. After 5 or 11 days the mice were separated randomly into control groups that had received only the vehicle and FTS-treated groups. Daily FTS treatments were administered either intraperitoneally (i.p.) or orally. Tumor volumes or weights were determined as described in Barkan, B., Starinsky, S., Friedman, E., Stein, R., Kloog, Y., Clin Cancer Res 12:5533-42 (2006). Gemcitabine treatment (36 mg/kg, i.p.) was administered every 4 days.
Tumor volume measured 14 days after cell implantation in that group was 0.02±0.045 cm^3 compared to 0.09±0.08 cm^3 in the vehicle-treated controls (P<0.05).

[2] = tested on: phospho-Akt; assay: Phospho-Akt immunoblotting in A549 cells; type: cell-based, human
Experimental: (§1) A549 cells were incubated for 24 or 48 h with or without FTS, as described above, and then lysed with lysis buffer as described in Haklai, R., Gana-Weisz, M., Elad, G., et al., Biochemistry 37:1306-14 (1998). The apparent amounts of K-Ras-GTP in 0.5 mg protein of total cell lysates were determined by the glutathione-S-transferase (GST)-RBD (Ras-binding domain of Raf) pull-down assay, as described in (Elad-Sfadia, G., Haklai, R., Ballan, E., Gabius, H. J., Kloog, Y., J Biol Chem 277:37169-75 (2002). The apparent amounts of Rac1-GTP and of RhoA-GTP, each in 2 mg protein of total cell lysates, were determined, respectively, by pull-down assays with GST-PBD (Rac1-binding domain of PAK1)-conjugated and GST-Rhotekin BD (Rho-binding domain of Rhotekin)-conjugated beads [Benard, V., Bohl, B. P., Bokoch, G. M, J Biol Chem 274:13198-204 (1999); Fiordalisi, J. J., Keller, P. J., Cox, A. D., Cancer Res 66:3153-61 (2006). […] Levels of phospho-ERK and phospho-Akt were determined by immunoblotting [Haklai, R., Gana-Weisz, M., Elad, G., et al., supra.] using rabbit anti phospho-ERK1/2 Ab (Santa Cruz Biotechnology, Santa Cruz, Calif.) and rabbit anti phospho-Akt Ab (Cell Signaling, Beverly, Mass.). Protein bands were visualized by enhanced chemiluminescence and quantified by densitometry using ImageJ computer software (National institutes of Health, Bethesda, Md.). […]

[3] = tested on: Rac1-GTP; assay: Rac1-GTP pull-down assay in A549 cells; type: cell-based, human
Experimental: as §1

[4] = tested on: A549 cells; assay: Drug combination experiments, live cell counting; type: cell-based, human; conditions: FTS alone 40 μM
Experimental: In drug combination experiments, cells were grown for 2 days in the absence or in the presence of 40 μM FTS and were then treated for 4 h with gemcitabine (100 or 200 nM), cisplatin (50 or 100 nM), doxorubicin (50 or 100 nM), or paclitaxel (2.5 or 5 nM). Live cells were counted after a further 3 days of incubation with or without FTS. Experiments were performed twice in quadruplicate. To determine whether A549 cells were resistant to apoptosis, an experiment to examine the survival of human lung cancer A549 cells after exposure to a chemotherapeutic agent in the presence of FTS was performed. Thus, to determine whether treatment with FTS can increase the sensitivity of A549 cells to cytotoxic drugs, A549 cells were incubated for 48 h with DMSO (control) or with 40 μM FTS, then for 4 h with gemcitabine, cisplatin, doxorubicin, or paclitaxel at the indicated concentrations. The cells were then washed and incubated for a further 72 h with DMSO or with 40 μM FTS. Live cells were collected and counted. The numbers of cells in the drug-treated cultures, expressed as percentages of the numbers in the vehicle-treated control, are shown in FIGS. 13A-13D. Values are means±SD. *P<0.05, **P<0.01, compared to vehicle-treated control.

[5] = tested on: RhoA-GTP; assay: RhoA-GTP pull-down assay in A549 cells; type: cell-based, human
Experimental: as §1

[6] = tested on: phospho-ERK; assay: Phospho-ERK immunoblotting in A549 cells; type: cell-based, human
Experimental: as §1

CC(C)=CCC/C(C)=C/CC/C(C)=C/CSc1ccccc1C(=O)O [FTS, S-farnesylthiosalicylic acid]
inhibition of tumor growth [1]: 76.4±48.8% | tumor volume ([1]; 14 days after cell implantation): 0.02±0.045 cm^3 | inhibition of phospho-Akt level [2]: 58±6% | effect on the amount of active Rac1-GTP [3]: no effect | reduction in cell numbers (mean±SD) ([4]; cisplatin experiment (FIG. 13C)): 33±9.5% | reduction in cell numbers (mean±SD) ([4]; gemcitabine experiment (FIG. 13A)): 25±6.3% | increase in RhoA-GTP [5]: 2±0.2 fold | inhibition of phospho-ERK level [6]: 33±2%
